Measurements taken from ChEMBL document CHEMBL1201862, “PubChem BioAssay data set” (2004).
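Following 48 hours of exposure in 96-well plates, responses at five concentrations were used to interpolate endpoints linearly. Here, GI50 denotes the concentration required for 50% inhibition of growth.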 Calls of active or inactive are those of the source. No stated cut-off is given here; in the data, active = GI50 up to about 1.1 µM and inactive = higher.

Experiments:
Test in all cases: inhibition of tumour cell growth, NCI panel, 48 h
HCT-15 = tested on: HCT-15
COLO 205 = tested on: COLO 205
OVCAR-3 = tested on: OVCAR-3
NCI-H23 = tested on: NCI-H23
OVCAR-8 = tested on: OVCAR-8
UACC-257 = tested on: UACC-257
K562 = tested on: K562
NCI-H522 = tested on: NCI-H522
DU-145 = tested on: DU-145
MCF7 = tested on: MCF7
RPMI-8226 = tested on: RPMI-8226
HCC 2998 = tested on: HCC 2998
SF-539 = tested on: SF-539
MOLT-4 = tested on: MOLT-4
SW-620 = tested on: SW-620
A549 = tested on: A549
SK-MEL-2 = tested on: SK-MEL-2
BT-549 = tested on: BT-549
OVCAR-4 = tested on: OVCAR-4
NCI-H460 = tested on: NCI-H460

Row | SMILES | GI50 (HCT-15) [µM] | GI50 (COLO 205) | GI50 (OVCAR-3) | GI50 (NCI-H23) | GI50 (OVCAR-8) | GI50 (UACC-257) | GI50 (K562) | GI50 (NCI-H522) | GI50 (DU-145) | GI50 (MCF7) | GI50 (RPMI-8226) | GI50 (HCC 2998) | GI50 (SF-539) | GI50 (MOLT-4) | GI50 (SW-620) | GI50 (A549) | GI50 (SK-MEL-2) | GI50 (BT-549) | GI50 (OVCAR-4) | GI50 (NCI-H460)
1 | Cc1ccc(OCCn2cc(Nc3ccccc3)c(=O)n(CCOc3ccc(C)cc3)c2=O)cc1 | > 100 | > 100 µM (inactive) | > 100 µM (inactive) | > 100 µM (inactive) | 40.6 µM (inactive) | > 100 µM (inactive) | 70.5 µM (inactive) | 97.7 µM (inactive) | > 100 µM (inactive) | > 100 µM (inactive) | > 100 µM (inactive) | > 100 µM (inactive) | > 100 µM (inactive) | 67.1 µM (inactive) | > 100 µM (inactive) | 28.8 µM (inactive) | > 100 µM (inactive) | > 100 µM (inactive) | 49.9 µM (inactive) | > 100 µM (inactive)
2 | CCCCCC(O)[C@H]1C(=O)C[C@@H](O[Si](C)(C)C(C)(C)C)[C@@H]1/C=C/CCOCc1ccccc1 (stereo not given in full) | 10.6 | 16 µM (inactive) | 13.7 µM (inactive) | 16.2 µM (inactive) | 13.8 µM (inactive) | 13.3 µM (inactive) | > 36.5 µM (inactive) | 3.88 µM (inactive) | 20 µM (inactive) | 9.02 µM (inactive) | 17 µM (inactive) | 14.9 µM (inactive) | 4.23 µM (inactive) | 4.46 µM (inactive) | 13.1 µM (inactive) | 18 µM (inactive) | 15.5 µM (inactive) | 8.07 µM (inactive) | 12.6 µM (inactive) | 16.9 µM (inactive)
3 | COc1ccc2nc3cccc([N+](=O)[O-])c3c(NCCC(=O)O)c2c1 | > 10 | 7.59 µM (inactive) | > 10 µM (inactive) | > 10 µM (inactive) | > 10 µM (inactive) | > 10 µM (inactive) | > 10 µM (inactive) | 4.56 µM (inactive) | > 10 µM (inactive) | 5.78 µM (inactive) | > 10 µM (inactive) | > 10 µM (inactive) | > 10 µM (inactive) | 5.22 µM (inactive) | > 10 µM (inactive) | > 10 µM (inactive) | > 10 µM (inactive) | > 10 µM (inactive) | > 10 µM (inactive) | > 10 µM (inactive)
4 | COc1cc(CNCc2cc(OC)c(OC)c(OC)c2)cc(OC)c1OC | > 10 | > 10 µM (inactive) | > 10 µM (inactive) | > 10 µM (inactive) | > 10 µM (inactive) | > 10 µM (inactive) | > 4.95 µM (inactive) | > 4.88 µM (inactive) | > 10 µM (inactive) | > 10 µM (inactive) | 9.73 µM (inactive) | > 10 µM (inactive) | > 10 µM (inactive) | > 5.7 µM (inactive) | > 10 µM (inactive) | > 10 µM (inactive) | > 10 µM (inactive) | > 10 µM (inactive) | > 10 µM (inactive) | > 10 µM (inactive)
5 | O=C1c2cccc3cc4ccccc4c(c23)C(=O)N1CCCNCCNCCCN1C(=O)c2cccc3cc4ccccc4c(c23)C1=O | 0.103 | 0.0316 µM (active) | 0.353 µM (active) | 0.0509 µM (active) | 0.0107 µM (active) | 1.02 µM (active) | < 0.01 µM (active) | < 0.01 µM (active) | 0.475 µM (active) | 0.0191 µM (active) | < 0.01 µM (active) | 0.0964 µM (active) | 0.142 µM (active) | < 0.01 µM (active) | < 0.01 µM (active) | 0.0133 µM (active) | 0.338 µM (active) | 1.24 µM (inactive) | 0.129 µM (active) | < 0.01 µM (active)
6 | COc1cccc(CCNc2c(C#N)c3n(c4ccccc4[n+]3C)c3ncccc23)c1 | 1.75 | 4.93 µM (inactive) | 19.6 µM (inactive) | 20.3 µM (inactive) | 1.7 µM (inactive) | 21.9 µM (inactive) | 2.39 µM (inactive) | 4.16 µM (inactive) | 5.42 µM (inactive) | 1.52 µM (inactive) | 2.71 µM (inactive) | 1.93 µM (inactive) | 1.58 µM (inactive) | 2.55 µM (inactive) | 2.47 µM (inactive) | 1.82 µM (inactive) | 21.4 µM (inactive) | 23.3 µM (inactive) | 2.04 µM (inactive) | 1.34 µM (inactive)
7 | CC12CC(Br)(Br)C(=O)C3C1CCCC32 | 3.61 | 2.38 µM (inactive) | 3.15 µM (inactive) | 6.46 µM (inactive) | 4.07 µM (inactive) | 8.65 µM (inactive) | 2.1 µM (inactive) | 3.08 µM (inactive) | 12.4 µM (inactive) | 4.33 µM (inactive) | 2.84 µM (inactive) | 6.89 µM (inactive) | 11.9 µM (inactive) | 1.67 µM (inactive) | 2.25 µM (inactive) | 14.6 µM (inactive) | 13.9 µM (inactive) | 2.09 µM (inactive) | 4.48 µM (inactive) | 14.9 µM (inactive)
